Experimental data from patent publication US20220117895A1, “PREPARING LIPOSOMES WITH HIGH DRUG LOADING CAPACITY AND THE USE THEREOF” (Purdue Research Foundation, priority 2019, published 2022).

Experiments:
[1] = test system: Huh7 human hepatocellular carcinoma cells; assay: Cytotoxicity of drug-loaded liposomes (MTT); assay type: cell-based
Method: Huh7 human hepatocellular carcinoma cells (donation of Prof. Wanqing Liu) were cultured in RPMI-1640 medium complemented with 10% FBS, 100 U/mL penicillin, and […] streptomycin at 37° C. in a humidified 5% CO2 atmosphere. Huh7 cells were seeded in a 96 well plate at a density of 10,000 cells per well and grown to 70% confluence. Huh7 cells were exposed to free drug or liposomal preparations for 3 or 6 h. The cells were rinsed twice with fresh medium and kept in drug-free medium for 72 h. In another experiment, Huh7 cells were incubated with a free Gem, LRSG, LRHG, free Dox, LRD, blank liposomes, free drug mixture, or liposome mixture for 72 h. The medium was then removed, and 15 μL of 5 mg/mL MTT solution and 100 μL media were added to each well and incubated for 4 h at 37° C. Each well was then treated with 100 μL of stop/solubilization solution and agitated at 37° C. overnight. The absorbance of dissolved formazan was measured at 562 nm by a SpectraMax M3 microplate reader (Molecular Devices, Sunnyvale, Calif.).

[2] = pKa and ionization of drug; assay type: physicochemical; settings: internal pH 3.6
[3] = test system: Huh7 cells; assay: Cellular uptake of drug-loaded liposomes, quantitative analysis; assay type: cell-based, human; settings: Huh7, 50 μM Dox equivalent; evident at 3, 6 and 12 h
Method: Huh7 Cells were seeded in a 12 well plate at a density of 10^5 cells per well. After overnight incubation, the cells were treated with LRHG, LRSG, or free Gem at a concentration equivalent to 50 μM Gem, or with LRD or free Dox at a concentration equivalent to 50 μM Dox. At 3, 6, 12, and 24 h post-treatment, the cells were rinsed twice with cold PBS, trypsinized and collected by centrifugation at 233 rcf. The cell pellets were suspended in PBS and lysed by three cycles of freezing and thawing followed by probe sonication. The protein content in each cell lysate was measured by micro BCA assay. A hundred microliters of cell lysate was mixed with 200 μL of acetonitrile, bath sonicated for 1 h, and centrifuged at 16100 rcf for 30 min to separate a supernatant. The supernatant was evaporated under vacuum overnight and reconstituted in 100 μL of PBS. Dox was detected by the microplate reader at λEx/λEm of 488 nm/580 nm. dFdCTP was detected by HPLC using a 64:36 v/v mixture of two aqueous mobile phases: (i) KH2PO4 10 mM, tetra butyl ammonium bromide (TBABr) 10 mM, pH 7 and 0.25% methanol and (ii) KH2PO4 250 mM, TBABr 10 mM, pH 7 and 15% methanol, run at 1.2 mL/min, and a detection wavelength of 271 nm.

[4] = test system: Huh7 cells; assay: Confocal imaging of cellular uptake; assay type: cell-based, human; settings: 10 min, 3 h, 10 h, with or without chloroquine
Method: Huh7 were seeded in a 35 mm glass-bottomed dish (Mat Tek Corp., Ashland, Mass.) at a density of 100,000 cells per dish. At 70% confluence, the cells were treated with free Dox for 10 min or fluorescently labeled liposomes (*LRD, labeled with 25-NBD cholesterol) for 10 min, 3 h or 10 h. At each time point, the cells were rinsed twice with PBS. After nuclei staining with Hoechst 33342 ([…]) for 10 min, the cells were rinsed again with PBS and imaged in medium by a Nikon-A1R confocal microscope (Nikon America Inc., Melville, N.Y.). For selected treatments, chloroquine was added 12 h prior to the treatment. The cells were rinsed with PBS and incubated with the labeled liposomes for confocal imaging.

[5] = cited from earlier work
[6] = upon systemic administration; cited from earlier work
[7] = literature (Bornmann et al.); cited from earlier work

| Compound | IC50 ([1]; 72 h incubation) [µM] | ionized/unionized ratio in the interior of liposomes [2] | cellular uptake of Dox [3] | cellular uptake and localisation by confocal microscope imaging [4] | pKa [5] | IC50 ([1]; Homo sapiens, Huh-7, 72 h incubation) [µM] | half-life [6] [min] | reported maximum tolerated dose [7] [mg/kg] |
| --- | --- | --- | --- | --- | --- | --- | --- | --- |
| COc1cccc2c1C(=O)c1c(O)c3c(c(O)c1C2=O)C[C@@](O)(C(=O)CO)C[C@@H]3O[C@H]1C[C@H](N)[C@H](O)[C@H](C)O1.Cl [Dox, Doxorubicin HCl] | 0.25 | 120,000 | entering cells more efficiently than LRD | appearing in the nuclei as early as in 10 min | 8.68 | – | – | – |
| Nc1ccn([C@@H]2O[C@H](CO)[C@@H](O)C2(F)F)c(=O)n1 [Gem, Gemcitabine] | – | – | – | – | 3.6 | 1.6 | 8 to 17 | 16 |
